Four substances from patent US7763594B2, “Compositions for the treatment of osteoarthritis and to nourish the synovial fluid” (Bioiberica, S.A., priority 2005, dated 2010) can be followed below.

The test system of assay [1] is metalloprotease activity (MMP-1-2-3-12-13). Description: Inhibition of metalloprotease activity in IL-1β-stimulated human arthrosic chondrocytes (FRET substrate). The class given is cell-based. As to conditions: 24 hours preincubation, then 100 U/ml IL-1β for 24 hours; significance p<0.05. How it is done:
Solutions were prepared with the two compositions of the invention. One of them contained 160 μg/ml of hyaluronic acid and 40 μg/ml of dermatan sulphate, and was compared to hyaluronic acid at a concentration of 160 μg/ml and to dermatan sulphate at a concentration of 40 μg/ml. The other composition contained 800 μg/ml of hyaluronic acid and 200 μg/ml of dermatan sulphate and was compared to hyaluronic acid at a concentration of 800 μg/ml and to dermatan sulphate at a concentration of 200 μg/ml. The chondrocytes were isolated from cartilage pieces (from knee or hip) from […] advanced osteoarthritis, by sequential enzymatic digestion: 1 hour with hyaluronidase (0.1 mg/ml), followed by 10 hours with collagenase (type IA, 2 mg/ml) at 37° C. in DMEM/Ham's F12 medium plus penicillin (100 U/ml) and streptomycin (100 μg/ml) in a controlled CO2 atmosphere. […] Cell viability was determined by the Trypan blue exclusion method, which was in excess of 95%. […] Subsequently, supernatants were transferred to a 96-well plaque for fluorescence analysis and the FRET substrate (QXLTM 520) was added for MMP-1-2-3-12-13. The plaque was shaked and fluorescence measured a different times with excitation and emission wavelengths set at 490 nm and 520 nm, respectively. […] Means and standard errors were calculated, and an analysis of variance and Dunnett's t-test were performed. […]

The test system of assay [2] is human osteoarthritic synoviocytes. As to the kind of experiment: Production of endogenous hyaluronic acid by human synoviocytes (ELISA of culture supernatant). The class given is cell-based. The method, then:
The composition of the invention, the HA extraction and the HA fermentation were separately incubated with synoviocytes for 12 and 24-hour periods. The following concentrations were used, both of the composition of the invention and of the hyaluronic acids: 10 μg/ml, 100 μg/ml and 200 μg/ml.
Synovial tissues were obtained from three osteoarthritic joints.
Synovial tissue was introduced into a sterile vial with DMEM (Dulbecco's Modification of Eagle's Medium) (2%), penicillin (150 U/ml), streptomycin ([…]) and amphotericin B (2 μg/ml), and then placed in a refrigerator (temperature: 0-4° C.) for transferral to the cell culture area. The synovial tissue was diced into fragments approximately sized to 2×2×2 mm^3. The fragments were washed three times in culture medium (RPMI 2% P/S/A). 20 ml of culture medium with 10% trypsin was added, and then incubated in a water bath at 37° C. for 10-15 minutes. Subsequently, the synovium was digested with 25 ml of collagenase solution [2 mg/ml type II collagenase; 5% fetal calf serum (FCS); 2% P/S/A; 1% L-glutamine; and deoxyribonuclease I 0.1 mg/ml or 150 U/l in RPMI]. The vial was introduced into a rotary shaker at 37° C. for approximately 2-4 hours. The cells were strained through a nylon filter with 25 μm diameter pores. A cell count was conducted and the cells were grown to a density of 5,000 to 10,000 cell/cm^2 in culture bottles of 25 or 75 cm^2 surface. The culture medium used was RPM supplemented with 10% FCS, 1% P/S and 1% L-glutamine. The synoviocytes used in the experiments were all from passages 2-3.
Following a 24-hour period culture, the synoviocytes (100,000 cells per well in a 24-well plate with 250 μl of medium) were stimulated using the composition of the invention, the HA extraction and the HA fermentation for 12 and 24-hour periods. Then, the supernatant of the different wells was harvested. The endogenous hyaluronic acid content was measured using an ELISA (Corgenix Inc. USA).
Results are shown as the average of 9 individual experiments performed on the cultures. Results are expressed as averages±S.D. and S.E. The statistical analysis was done using a two-tailed unpaired Student's T-test. A statistical difference is considered significant when p<0.05.
(In general: ELISA stands for enzyme-linked immunosorbent assay.)

For dermatan sulphate, in assay [1], the “reduction of metalloprotease activity (in words)” value is given as “reduction of metalloprotease activity, albeit not at a statistically significant level”.
On to hyaluronic acid [HA extraction], for which the “level of endogenous hyaluronic acid in supernatant” value in assay [2] (12-hour period, 100 μg/ml) is listed as 25,762 ng/ml; in assay [2] (24-hour period, 100 μg/ml), 27,634 ng/ml; in assay [2] (24-hour period, 200 μg/ml), 91,538 ng/ml.
In the case of hyaluronic acid [hyaluronic acid (HA)], the “reduction of metalloprotease activity (in words)” value in assay [1] was “reduction of metalloprotease activity, albeit not at a statistically significant level”.
Turning to sodium hyaluronate [HA fermentation], the “level of endogenous hyaluronic acid in supernatant” value is recorded as 9,724 ng/ml in assay [2] (12-hour period, 100 μg/ml); 62,618 ng/ml in assay [2] (12-hour period, 200 μg/ml); 15,706 ng/ml in assay [2] (24-hour period, 100 μg/ml); 72,594 ng/ml in assay [2] (24-hour period, 200 μg/ml).
